Measured values taken from ChEMBL document CHEMBL1201862, “PubChem BioAssay data set” (2004).
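Cells were grown in 96-well plates and exposed to each compound for 48 hours at five concentrations; endpoints were interpolated linearly between bracketing concentrations, or set to the highest concentration if not reached. At the GI50, growth is halved.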 Calls of active or inactive are those of the source. No stated cut-off is given here; in the data, active = GI50 up to about 1.1 µM and inactive = higher.

Experiments:
Assay in all cases: DTP human tumour cell line panel, 48 h
786-0 = system: 786-0
A498 = system: A498
A549 = system: A549
BT-549 = system: BT-549
CCRF-CEM = system: CCRF-CEM
COLO 205 = system: COLO 205
DU-145 = system: DU-145
EKVX = system: EKVX
HCT-116 = system: HCT-116
HCT-15 = system: HCT-15
HL-60 = system: HL-60
HOP-62 = system: HOP-62
HOP-92 = system: HOP-92
HT-29 = system: HT-29
Hs-578T = system: Hs-578T
IGROV-1 = system: IGROV-1
K562 = system: K562
KM12 = system: KM12
LOX IMVI = system: LOX IMVI
M14 = system: M14
MCF7 = system: MCF7
MDA-MB-231 = system: MDA-MB-231
MDA-MB-435 = system: MDA-MB-435
MDA-N = system: MDA-N
MOLT-4 = system: MOLT-4
Malme-3M = system: Malme-3M
NCI-H226 = system: NCI-H226
NCI-H23 = system: NCI-H23
NCI-H460 = system: NCI-H460
NCI/ADR-RES = system: NCI/ADR-RES
OVCAR-3 = system: OVCAR-3
OVCAR-5 = system: OVCAR-5
OVCAR-8 = system: OVCAR-8
PC-3 = system: PC-3
RPMI-8226 = system: RPMI-8226
RXF 393 = system: RXF 393
SF-268 = system: SF-268
SF-295 = system: SF-295
SF-539 = system: SF-539
SK-MEL-28 = system: SK-MEL-28
SK-MEL-2 = system: SK-MEL-2
SK-OV-3 = system: SK-OV-3
SN12C = system: SN12C
SNB-19 = system: SNB-19
SNB-75 = system: SNB-75
SR = system: SR
SW-620 = system: SW-620
T47D = system: T47D
TK-10 = system: TK-10
U-251 = system: U-251
UACC-257 = system: UACC-257
UACC-62 = system: UACC-62
UO-31 = system: UO-31
ACHN = system: ACHN
CAKI-1 = system: CAKI-1
NCI-H522 = system: NCI-H522
OVCAR-4 = system: OVCAR-4
SK-MEL-5 = system: SK-MEL-5

For `CC(=O)/C(=C\I)c1ccccc1`, the GI50 (786-0) was 2.12 µM (inactive), the GI50 (A498) was 17.7 µM (inactive) and the GI50 (A549) was 15.7 µM (inactive). The GI50 (BT-549) was 1.83 µM (inactive), the GI50 (CCRF-CEM) was 1.97 µM (inactive) and the GI50 (COLO 205) was 1.71 µM (inactive). The GI50 (DU-145) was 3.38 µM (inactive), the GI50 (EKVX) was 18.6 µM (inactive) and the GI50 (HCT-116) was 2.26 µM (inactive). The GI50 (HCT-15) was 1.83 µM, the GI50 (HL-60) was 1.08 µM (active) and the GI50 (HOP-62) was 23.1 µM (inactive). The GI50 (HOP-92) was 2.45 µM (inactive), the GI50 (HT-29) was 0.995 µM (active) and the GI50 (Hs-578T) was 3.44 µM (inactive). The GI50 (IGROV-1) was 2.1 µM (inactive), the GI50 (K562) was 0.481 µM (active) and the GI50 (KM12) was 3.57 µM (inactive). The GI50 (LOX IMVI) was 1.67 µM (inactive), the GI50 (M14) was 2.31 µM (inactive) and the GI50 (MCF7) was 1.8 µM (inactive). For the same compound, the GI50 (MDA-MB-231) was 1.85 µM (inactive), the GI50 (MDA-MB-435) was 3.86 µM (inactive) and the GI50 (MDA-N) was 1.62 µM (inactive). For the same compound, the GI50 (MOLT-4) was 1.89 µM (inactive), the GI50 (Malme-3M) was 1.67 µM (inactive) and the GI50 (NCI-H226) was 21.2 µM (inactive). The GI50 (NCI-H23) was 2.23 µM (inactive), the GI50 (NCI-H460) was 11.2 µM (inactive) and the GI50 (NCI/ADR-RES) was 10 µM (inactive). For the same compound, the GI50 (OVCAR-3) was 1.7 µM (inactive), the GI50 (OVCAR-5) was 1.49 µM (inactive) and the GI50 (OVCAR-8) was 1.82 µM (inactive). For the same compound, the GI50 (PC-3) was 2.51 µM (inactive), the GI50 (RPMI-8226) was 2.03 µM (inactive) and the GI50 (RXF 393) was 1.66 µM (inactive). For the same compound, the GI50 (SF-268) was 7.91 µM (inactive), the GI50 (SF-295) was 19.1 µM (inactive) and the GI50 (SF-539) was 18 µM (inactive). For the same compound, the GI50 (SK-MEL-28) was 3.18 µM (inactive), the GI50 (SK-MEL-2) was 2.6 µM (inactive) and the GI50 (SK-OV-3) was 13.6 µM (inactive). The GI50 (SN12C) was 1.99 µM (inactive), the GI50 (SNB-19) was 12.1 µM (inactive) and the GI50 (SNB-75) was 3.94 µM (inactive). For the same compound, the GI50 (SR) was 1.49 µM (inactive), the GI50 (SW-620) was 1.3 µM (inactive) and the GI50 (T47D) was 1.69 µM (inactive). The GI50 (TK-10) was 13.9 µM (inactive), the GI50 (U-251) was 2.26 µM (inactive) and the GI50 (UACC-257) was 3.04 µM (inactive). The GI50 (UACC-62) was 1.77 µM (inactive) and the GI50 (UO-31) was 3.85 µM (inactive).

For `O=C(O)CSc1ncccc1[N+](=O)[O-]`, the GI50 (786-0) was > 100 µM (inactive), the GI50 (A498) was > 100 µM (inactive) and the GI50 (A549) was > 100 µM (inactive). The GI50 (ACHN) was > 100 µM (inactive), the GI50 (BT-549) was > 100 µM (inactive) and the GI50 (CAKI-1) was > 100 µM (inactive). The GI50 (CCRF-CEM) was > 100 µM (inactive), the GI50 (COLO 205) was > 100 µM (inactive) and the GI50 (DU-145) was > 100 µM (inactive). For the same compound, the GI50 (EKVX) was > 100 µM (inactive), the GI50 (HCT-116) was > 100 µM (inactive) and the GI50 (HCT-15) was greater than 100 µM. For the same compound, the GI50 (HL-60) was > 100 µM (inactive), the GI50 (HOP-62) was > 100 µM (inactive) and the GI50 (HOP-92) was > 100 µM (inactive). The GI50 (HT-29) was > 100 µM (inactive), the GI50 (Hs-578T) was > 100 µM (inactive) and the GI50 (IGROV-1) was > 100 µM (inactive). The GI50 (K562) was > 100 µM (inactive), the GI50 (KM12) was > 100 µM (inactive) and the GI50 (LOX IMVI) was > 100 µM (inactive). For the same compound, the GI50 (M14) was > 100 µM (inactive), the GI50 (MCF7) was > 100 µM (inactive) and the GI50 (MDA-MB-231) was > 100 µM (inactive). For the same compound, the GI50 (MDA-MB-435) was > 100 µM (inactive), the GI50 (MDA-N) was > 100 µM (inactive) and the GI50 (MOLT-4) was > 100 µM (inactive). For the same compound, the GI50 (Malme-3M) was > 100 µM (inactive), the GI50 (NCI-H226) was > 100 µM (inactive) and the GI50 (NCI-H23) was > 100 µM (inactive). The GI50 (NCI-H460) was > 100 µM (inactive), the GI50 (NCI-H522) was > 100 µM (inactive) and the GI50 (NCI/ADR-RES) was > 100 µM (inactive). The GI50 (OVCAR-3) was > 100 µM (inactive), the GI50 (OVCAR-4) was > 100 µM (inactive) and the GI50 (OVCAR-5) was > 100 µM (inactive). For the same compound, the GI50 (OVCAR-8) was > 100 µM (inactive), the GI50 (PC-3) was > 100 µM (inactive) and the GI50 (RXF 393) was > 100 µM (inactive). The GI50 (SF-268) was > 100 µM (inactive), the GI50 (SF-295) was > 100 µM (inactive) and the GI50 (SF-539) was > 100 µM (inactive). For the same compound, the GI50 (SK-MEL-28) was > 100 µM (inactive), the GI50 (SK-MEL-2) was > 100 µM (inactive) and the GI50 (SK-MEL-5) was > 100 µM (inactive). For the same compound, the GI50 (SK-OV-3) was > 100 µM (inactive), the GI50 (SN12C) was > 100 µM (inactive) and the GI50 (SNB-19) was > 100 µM (inactive). The GI50 (SNB-75) was > 100 µM (inactive), the GI50 (SR) was > 100 µM (inactive) and the GI50 (SW-620) was > 100 µM (inactive). The GI50 (T47D) was > 100 µM (inactive), the GI50 (TK-10) was > 100 µM (inactive) and the GI50 (U-251) was > 100 µM (inactive). The GI50 (UACC-257) was > 100 µM (inactive), the GI50 (UACC-62) was > 100 µM (inactive) and the GI50 (UO-31) was > 100 µM (inactive).

With `CC(C)CC1c2[nH]c3ccccc3c2C[C@H]2C(=O)NC(CCCCNC(=O)OC(C)(C)C)C(=O)N12` (stereo partly drawn) the GI50 (786-0) was 20.9 µM (inactive), the GI50 (A498) was 35.4 µM (inactive) and the GI50 (A549) was 33.7 µM (inactive). For the same compound, the GI50 (ACHN) was 29 µM (inactive), the GI50 (BT-549) was 25.2 µM (inactive) and the GI50 (CAKI-1) was 37.3 µM (inactive). For the same compound, the GI50 (COLO 205) was 27.7 µM (inactive), the GI50 (DU-145) was 38 µM (inactive) and the GI50 (EKVX) was 51.9 µM (inactive). The GI50 (HCT-116) was 30 µM (inactive), the GI50 (HCT-15) was 31.8 µM and the GI50 (HL-60) was 21.7 µM (inactive). The GI50 (HOP-62) was 56.2 µM (inactive), the GI50 (HOP-92) was 31 µM (inactive) and the GI50 (HT-29) was 23.5 µM (inactive). The GI50 (Hs-578T) was 2.7 µM (inactive), the GI50 (IGROV-1) was 37.1 µM (inactive) and the GI50 (K562) was 32 µM (inactive). For the same compound, the GI50 (KM12) was 17 µM (inactive), the GI50 (LOX IMVI) was 24.6 µM (inactive) and the GI50 (M14) was 35.3 µM (inactive). The GI50 (MCF7) was 34.3 µM (inactive), the GI50 (MDA-MB-231) was 17 µM (inactive) and the GI50 (MDA-MB-435) was 33 µM (inactive). The GI50 (MDA-N) was 37.5 µM (inactive), the GI50 (MOLT-4) was 11.8 µM (inactive) and the GI50 (Malme-3M) was 31.6 µM (inactive). For the same compound, the GI50 (NCI-H226) was 55.3 µM (inactive), the GI50 (NCI-H23) was 33 µM (inactive) and the GI50 (NCI-H522) was 19.5 µM (inactive). The GI50 (NCI/ADR-RES) was 33.4 µM (inactive), the GI50 (OVCAR-3) was 2.36 µM (inactive) and the GI50 (OVCAR-4) was 37.7 µM (inactive). The GI50 (OVCAR-5) was 61.5 µM (inactive), the GI50 (OVCAR-8) was 34.2 µM (inactive) and the GI50 (PC-3) was 17.9 µM (inactive). The GI50 (RPMI-8226) was 18.7 µM (inactive), the GI50 (RXF 393) was 6.62 µM (inactive) and the GI50 (SF-268) was 21.4 µM (inactive). For the same compound, the GI50 (SF-295) was 12.3 µM (inactive), the GI50 (SK-MEL-28) was 65.6 µM (inactive) and the GI50 (SK-MEL-2) was 21.6 µM (inactive). For the same compound, the GI50 (SK-MEL-5) was 33.2 µM (inactive), the GI50 (SN12C) was 33.9 µM (inactive) and the GI50 (SNB-19) was 47.1 µM (inactive). For the same compound, the GI50 (SR) was 11.9 µM (inactive), the GI50 (SW-620) was 41 µM (inactive) and the GI50 (T47D) was 0.449 µM (active). For the same compound, the GI50 (TK-10) was 31.3 µM (inactive), the GI50 (U-251) was 24.7 µM (inactive) and the GI50 (UACC-257) was 44.8 µM (inactive). The GI50 (UACC-62) was 27 µM (inactive) and the GI50 (UO-31) was 38.1 µM (inactive).
